US9409892B2, “4-hydroxy-isoquinoline compounds as HIF hydroxylase inhibitors” (FIBROGEN, INC., priority 2012, dated 2016)
“And” between values parts separate entries of the source, which are not always exact repeats. Equal entries are not always repeated. Where two headings read alike, the source gives them in different places.

Assays:
PHD2 (EGLN1) = PHD2 (EGLN1) (Homo sapiens (Human), UniProt Q9GZT9); assay: HIF-PH assay (14CO2 capture), PHD2 enzyme inhibition; format: biochemical; conditions: Table 1
Chain of PHD2 (EGLN1) (Q9GZT9 whole entry): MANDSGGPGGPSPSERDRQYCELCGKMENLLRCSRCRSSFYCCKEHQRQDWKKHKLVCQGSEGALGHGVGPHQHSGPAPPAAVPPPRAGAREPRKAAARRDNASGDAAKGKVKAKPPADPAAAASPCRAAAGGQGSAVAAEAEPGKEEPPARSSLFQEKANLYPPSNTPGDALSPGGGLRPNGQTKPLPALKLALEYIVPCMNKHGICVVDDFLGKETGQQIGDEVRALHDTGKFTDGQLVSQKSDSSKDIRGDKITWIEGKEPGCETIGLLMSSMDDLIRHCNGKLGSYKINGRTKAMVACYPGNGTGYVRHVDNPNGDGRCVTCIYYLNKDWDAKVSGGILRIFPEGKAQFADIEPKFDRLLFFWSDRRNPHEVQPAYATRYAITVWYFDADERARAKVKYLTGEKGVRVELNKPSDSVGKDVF

PHD1 (EGLN2) = PHD1 (EGLN2) (Homo sapiens (Human), UniProt Q96KS0); assay: HIF-PH assay (14CO2 capture), PHD1 enzyme inhibition; format: biochemical; conditions: for PHD2/PHD1 avg.: average of the ratios of multiple independent measurements
Chain of PHD1 (EGLN2) (Q96KS0 whole entry): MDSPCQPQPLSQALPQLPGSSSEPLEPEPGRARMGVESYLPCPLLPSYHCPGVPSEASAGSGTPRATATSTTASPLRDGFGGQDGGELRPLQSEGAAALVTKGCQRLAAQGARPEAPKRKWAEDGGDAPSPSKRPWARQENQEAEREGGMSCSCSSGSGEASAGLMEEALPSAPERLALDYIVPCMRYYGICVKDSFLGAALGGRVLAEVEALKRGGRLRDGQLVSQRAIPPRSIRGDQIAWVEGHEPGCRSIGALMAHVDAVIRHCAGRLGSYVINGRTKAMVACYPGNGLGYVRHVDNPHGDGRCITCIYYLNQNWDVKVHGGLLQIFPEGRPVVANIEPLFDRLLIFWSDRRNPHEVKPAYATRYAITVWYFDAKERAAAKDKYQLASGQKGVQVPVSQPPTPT

[1] = individual measurement, read-out: IC50 (μM) PHD2
[2] = Table 1, individual measurement, read-out: IC50 (μM) PHD1
[3] = Table 1, ratio of the IC50 of the compound for each enzyme
[4] = average of multiple independent measurements, read-out: IC50 (μM) PHD2 avg.
[5] = Table 1, average of multiple independent measurements, read-out: IC50 (μM) PHD1 avg.

## CCC(C)(CNC(=O)c1nc(C#N)c2cc(Oc3ccccc3)ccc2c1O)C(=O)O (stereo not shown) [Compound 58, 2-{[(1-Cyano-4-hydroxy-7-phenoxy-isoquinoline-3-carbonyl)-amino]-methyl}-2-methyl-butyric acid]
PHD2 (EGLN1); [1]
  IC50: 12.3 µM
PHD1 (EGLN2); [2]
  IC50: 1.1 µM
PHD1 (EGLN2); [3]
  PHD2/PHD1: 11

## CC(C)(CNC(=O)c1nc(C#N)c2cc(Oc3ccc4ccccc4c3)ccc2c1O)C(=O)O [Compound 59, 3{-[1-Cyano-4-hydroxy-7-(naphthalen-2-yloxy)-isoquinoline-3-carbonyl]-amino}-2,2-dimethyl-propionic acid]
PHD2 (EGLN1); [1]
  IC50: 0.86 µM
PHD1 (EGLN2); [2]
  IC50: 0.13 µM
PHD1 (EGLN2); [3]
  PHD2/PHD1: 6.5

## COc1ccccc1Oc1ccc2c(O)c(C(=O)NCC(C)(C)C(=O)O)nc(C#N)c2c1 [Compound 60, 3{-[1-Cyano-4-hydroxy-7-(2-methoxy-phenoxy)-isoquinoline-3-carbonyl]-amino}-2,2-dimethyl-propionic acid]
PHD2 (EGLN1); [4]
  IC50: 7.23 µM
PHD2 (EGLN1); [1]
  IC50: 3.65 µM and 10.8 µM
PHD1 (EGLN2); [5]
  IC50: 1.04 µM
PHD1 (EGLN2); Table 1
  PHD2/PHD1 avg.: 6.8 avg
PHD1 (EGLN2); [2]
  IC50: 1 µM and 1.08 µM

## CC(C)C(CC(=O)O)NC(=O)c1nc(C#N)c2cc(Oc3ccccc3)ccc2c1O (stereo not shown) [Compound 61, 3-[(1-Cyano-4-hydroxy-7-phenoxy-isoquinoline-3-carbonyl)-amino]-4-methyl-pentanoic acid]
PHD2 (EGLN1); [1]
  IC50: > 200 µM
PHD1 (EGLN2)
  PHD2/PHD1: 6
PHD1 (EGLN2); read-out: IC50 (μM) PHD1
  IC50: 33.3 µM

## CCc1ccccc1Oc1ccc2c(O)c(C(=O)NCC(C)(C)C(=O)O)nc(C#N)c2c1 [Compound 62, 3{-[1-Cyano-7-(2-ethyl-phenoxy)-4-hydroxy-isoquinoline-3-carbonyl]-amino}-2,2-dimethyl-propionic acid]
PHD2 (EGLN1); [1]
  IC50: 3.06 µM
PHD1 (EGLN2); [2]
  IC50: 0.48 µM
PHD1 (EGLN2); [3]
  PHD2/PHD1: 6

## CC[C@H](CC(=O)O)NC(=O)c1nc(C#N)c2cc(Oc3ccccc3)ccc2c1O [Compound 63, 3-(R)-[(1-Cyano-4-hydroxy-7-phenoxy-isoquinoline-3-carbonyl)-amino]-pentanoic acid]
PHD2 (EGLN1); [1]
  IC50: 26.9 µM
PHD1 (EGLN2); [2]
  IC50: 2.82 µM
PHD1 (EGLN2); [3]
  PHD2/PHD1: 10

## C[C@H](CC(=O)O)NC(=O)c1nc(C#N)c2cc(Oc3ccccc3)ccc2c1O [Compound 64, 3-(R)-[(1-Cyano-4-hydroxy-7-phenoxy-isoquinoline-3-carbonyl)-amino]-butyric acid]
PHD2 (EGLN1); [1]
  IC50: 12.6 µM
PHD1 (EGLN2); [2]
  IC50: 0.93 µM
PHD1 (EGLN2); [3]
  PHD2/PHD1: 14

## N#Cc1nc(C(=O)NCC(F)(F)C(=O)O)c(O)c2ccc(Oc3ccccc3)cc12 [Compound 65, 3-[(1-Cyano-4-hydroxy-7-phenoxy-isoquinoline-3-carbonyl)-amino]-2,2-difluoro-propionic acid]
PHD2 (EGLN1); [1]
  IC50: 5.99 µM
PHD1 (EGLN2); [2]
  IC50: 0.73 µM
PHD1 (EGLN2); [3]
  PHD2/PHD1: 8

## CC(C)CC(CC(=O)O)NC(=O)c1nc(C#N)c2cc(Oc3ccccc3)ccc2c1O (stereo not shown) [Compound 66, 3-[(1-Cyano-4-hydroxy-7-phenoxy-isoquinoline-3-carbonyl)-amino]-5-methyl-hexanoic acid]
PHD2 (EGLN1); [4]
  IC50: 53.5 µM
PHD2 (EGLN1); [1]
  IC50: 26.5 µM and 80.5 µM
PHD1 (EGLN2); [5]
  IC50: 5.52 µM
PHD1 (EGLN2); Table 1
  PHD2/PHD1 avg.: 10.5 avg.
PHD1 (EGLN2); [2]
  IC50: 6.23 µM and 4.8 µM

## C[C@@H](NC(=O)c1nc(C#N)c2cc(Oc3ccccc3)ccc2c1O)[C@@H](C)C(=O)O [Compound 69, (2R,3R)-3-[(1-Cyano-4-hydroxy-7-phenoxy-isoquinoline-3-carbonyl)-amino]-2-methyl-butyric acid]
PHD2 (EGLN1); [1]
  IC50: 64.1 µM
PHD1 (EGLN2); [2]
  IC50: 2.43 µM
PHD1 (EGLN2); [3]
  PHD2/PHD1: 26

## C[C@H](C(=O)O)[C@@H](C)NC(=O)c1nc(C#N)c2cc(Oc3ccccc3)ccc2c1O [Compound 70, (2S,3R)-3-[(1-Cyano-4-hydroxy-7-phenoxy-isoquinoline-3-carbonyl)-amino]-2-methyl-butyric acid]
PHD2 (EGLN1); [1]
  IC50: 65.8 µM
PHD1 (EGLN2); [2]
  IC50: 1.86 µM
PHD1 (EGLN2); [3]
  PHD2/PHD1: 35

## C[C@H](NC(=O)c1nc(C#N)c2cc(Oc3ccccc3)ccc2c1O)[C@H](C)C(=O)O [Compound 71, (2S,3S)-3-[(1-Cyano-4-hydroxy-7-phenoxy-isoquinoline-3-carbonyl)-amino]-2-methyl-butyric acid]
PHD2 (EGLN1); [1]
  IC50: 107 µM
PHD1 (EGLN2); [2]
  IC50: 2.77 µM
PHD1 (EGLN2); [3]
  PHD2/PHD1: 39

## C[C@H](NC(=O)c1nc(C#N)c2cc(Oc3ccccc3)ccc2c1O)[C@@H](C)C(=O)O [Compound 72, (2R,3S)-3-[(1-Cyano-4-hydroxy-7-phenoxy-isoquinoline-3-carbonyl)-amino]-2-methyl-butyric acid]
PHD2 (EGLN1); [1]
  IC50: 200 µM
PHD1 (EGLN2); [2]
  IC50: 11.8 µM
PHD1 (EGLN2); [3]
  PHD2/PHD1: 17

## C[C@](O)(CNC(=O)c1nc(C#N)c2cc(Oc3ccccc3)ccc2c1O)C(=O)O [Compound 73, (S)-3-(1-Cyano-4-hydroxy-7-phenoxyisoquinoline-3-carboxamido)-2-hydroxy-2-methylpropanoic acid]
PHD2 (EGLN1); [1]
  IC50: 3.38 µM
PHD1 (EGLN2); [2]
  IC50: 0.74 µM
PHD1 (EGLN2); [3]
  PHD2/PHD1: 5

## N#Cc1nc(C(=O)N[C@H](Cc2ccccc2)[C@H](O)C(=O)O)c(O)c2ccc(Oc3ccccc3)cc12 [Compound 74, (2S,3R)-3-(1-Cyano-4-hydroxy-7-phenoxyisoquinoline-3-carboxamido)-2-hydroxy-4-phenylbutanoic acid]
PHD2 (EGLN1); [1]
  IC50: 7.64 µM
PHD1 (EGLN2); [2]
  IC50: 1.55 µM
PHD1 (EGLN2); [3]
  PHD2/PHD1: 5

## N#Cc1nc(C(=O)N[C@H](Cc2ccccc2)[C@@H](O)C(=O)O)c(O)c2ccc(Oc3ccccc3)cc12 [Compound 75, (2R,3R)-3-(1-Cyano-4-hydroxy-7-phenoxyisoquinoline-3-carboxamido)-2-hydroxy-4-phenylbutanoic acid]
PHD2 (EGLN1); [1]
  IC50: 18.9 µM
PHD1 (EGLN2); [2]
  IC50: 1.17 µM
PHD1 (EGLN2); [3]
  PHD2/PHD1: 16

## N#Cc1nc(C(=O)NCC(O)C(=O)O)c(O)c2ccc(Oc3ccccc3)cc12 (stereo not shown) [Compound 76, 3-[(1-Cyano-4-hydroxy-7-phenoxy-isoquinoline-3-carbonyl)-amino]-2-hydroxy-propionic acid]
PHD2 (EGLN1); [1]
  IC50: 2.86 µM
PHD1 (EGLN2); [2]
  IC50: 0.16 µM
PHD1 (EGLN2); [3]
  PHD2/PHD1: 18

## CC(C)(CNC(=O)c1nc(C#N)c2cc(Oc3ccccc3)ccc2c1O)C(=O)O [Compound 77, 3-[(1-Cyano-4-hydroxy-7-phenoxy-isoquinoline-3-carbonyl)-amino]-2,2-dimethyl-propionic acid]
PHD2 (EGLN1); [1]
  IC50: 9.12 µM
PHD1 (EGLN2); [2]
  IC50: 0.41 µM
PHD1 (EGLN2); [3]
  PHD2/PHD1: 22

## C[C@@H](CC(=O)O)NC(=O)c1nc(C#N)c2cc(Oc3ccccc3)ccc2c1O [Compound 78, 3-(S)-[(1-Cyano-4-hydroxy-7-phenoxy-isoquinoline-3-carbonyl)-amino]-butyric acid]
PHD2 (EGLN1); [1]
  IC50: 96.8 µM
PHD1 (EGLN2); [2]
  IC50: 3.27 µM
PHD1 (EGLN2); [3]
  PHD2/PHD1: 30

## N#Cc1nc(C(=O)NC[C@H](O)C(=O)O)c(O)c2ccc(Oc3ccccc3)cc12 [Compound 79, 3-[(1-Cyano-4-hydroxy-7-phenoxy-isoquinoline-3-carbonyl)-amino]-2-(S)-hydroxy-propionic acid]
PHD2 (EGLN1); [1]
  IC50: 1.69 µM
PHD1 (EGLN2); [2]
  IC50: 0.11 µM
PHD1 (EGLN2); [3]
  PHD2/PHD1: 15

## N#Cc1nc(C(=O)NCCCC(=O)O)c(O)c2ccc(Oc3ccccc3)cc12 [Compound 80, 4-[(1-Cyano-4-hydroxy-7-phenoxy-isoquinoline-3-carbonyl)-amino]-butyric acid]
PHD2 (EGLN1); [1]
  IC50: 0.71 µM
PHD1 (EGLN2); [2]
  IC50: 0.14 µM
PHD1 (EGLN2); [3]
  PHD2/PHD1: 5

## N#Cc1nc(C(=O)NCCCCC(=O)O)c(O)c2ccc(Oc3ccccc3)cc12 [Compound 81, 5-[(1-Cyano-4-hydroxy-7-phenoxy-isoquinoline-3-carbonyl)-amino]-pentanoic acid]
PHD2 (EGLN1); [1]
  IC50: 4.95 µM
PHD1 (EGLN2); [2]
  IC50: 0.42 µM
PHD1 (EGLN2); [3]
  PHD2/PHD1: 12

## N#Cc1nc(C(=O)NCC[C@H](O)C(=O)O)c(O)c2ccc(Oc3ccccc3)cc12 [Compound 83, 4-[(1-Cyano-4-hydroxy-7-phenoxy-isoquinoline-3-carbonyl)-amino]-2-(S)-hydroxy-butyric acid]
PHD2 (EGLN1); [1]
  IC50: 2.75 µM
PHD1 (EGLN2); [2]
  IC50: 0.24 µM
PHD1 (EGLN2); [3]
  PHD2/PHD1: 12

## CC(C)(CCNC(=O)c1nc(C#N)c2cc(Oc3ccccc3)ccc2c1O)C(=O)O [Compound 84, 4-[(1-Cyano-4-hydroxy-7-phenoxy-isoquinoline-3-carbonyl)-amino]-2,2-dimethyl-butyric acid]
PHD2 (EGLN1); [1]
  IC50: 2.11 µM
PHD1 (EGLN2); [2]
  IC50: 0.34 µM
PHD1 (EGLN2); [3]
  PHD2/PHD1: 6

## CC(C)(C)OC(=O)N[C@@H](CNC(=O)c1nc(C#N)c2cc(Oc3ccccc3)ccc2c1O)C(=O)O [Compound 85, 2-(S)-tert-Butoxycarbonylamino-3-[(1-cyano-4-hydroxy-7-phenoxy-isoquinoline-3-carbonyl)-amino]-propionic acid]
PHD2 (EGLN1); [1]
  IC50: 112 µM
PHD1 (EGLN2); [2]
  IC50: 19.1 µM
PHD1 (EGLN2); [3]
  PHD2/PHD1: 6

## N#Cc1nc(C(=O)NC[C@H](N)C(=O)O)c(O)c2ccc(Oc3ccccc3)cc12 [Compound 86, 2-(S)-Amino-3-[(1-cyano-4-hydroxy-7-phenoxy-isoquinoline-3-carbonyl)-amino]-propionic acid]
PHD2 (EGLN1); [1]
  IC50: 51.9 µM
PHD1 (EGLN2); [2]
  IC50: 2.51 µM
PHD1 (EGLN2); [3]
  PHD2/PHD1: 21

## N#Cc1nc(C(=O)NC[C@H](NC(=O)OCc2ccccc2)C(=O)O)c(O)c2ccc(Oc3ccccc3)cc12 [Compound 87, 2-(S)-Benzyloxycarbonylamino-3-[(1-cyano-4-hydroxy-7-phenoxy-isoquinoline-3-carbonyl)-amino]-propionic acid]
PHD2 (EGLN1); [1]
  IC50: 27.5 µM
PHD1 (EGLN2); [2]
  IC50: 3.56 µM
PHD1 (EGLN2); [3]
  PHD2/PHD1: 8

## N#Cc1nc(C(=O)N[C@H]2CC[C@H](C(=O)O)CC2)c(O)c2ccc(Oc3ccccc3)cc12 [Compound 88, trans-4-[(1-Cyano-4-hydroxy-7-phenoxy-isoquinoline-3-carbonyl)-amino]-cyclohexanecarboxylic acid]
PHD2 (EGLN1); [1]
  IC50: 93.3 µM
PHD1 (EGLN2); [2]
  IC50: 14.1 µM
PHD1 (EGLN2); [3]
  PHD2/PHD1: 7

## CC(C)(CNC(=O)c1nc(C#N)c2cc(Oc3ccccc3)ccc2c1O)CC(=O)O [Compound 89, 4-[(1-Cyano-4-hydroxy-7-phenoxy-isoquinoline-3-carbonyl)-amino]-3,3-dimethyl-butyric acid]
PHD2 (EGLN1); [1]
  IC50: 13.6 µM
PHD1 (EGLN2); [2]
  IC50: 2.86 µM
PHD1 (EGLN2); [3]
  PHD2/PHD1: 5

## N#Cc1nc(C(=O)NC2(CC(=O)O)CCCCC2)c(O)c2ccc(Oc3ccccc3)cc12 [Compound 90, {1-[(1-Cyano-4-hydroxy-7-phenoxy-isoquinoline-3-carbonyl)-amino]-cyclohexyl}-acetic acid]
PHD2 (EGLN1); [1]
  IC50: 56.3 µM
PHD1 (EGLN2); [2]
  IC50: 7.32 µM
PHD1 (EGLN2); [3]
  PHD2/PHD1: 8
